System: LPS-induced IL-1 release from peritoneal macrophages
Experiment: LPS-induced interleukin 1 release from murine peritoneal macrophages, ELISA
Type: cell-based, C57BL6/J mice
Description: C57BL6/J male mice were injected intraperitoneally with 2ml of thioglycollate. Five (5) days later peritoneal macrophages were collected by ravaging the peritoneum of anaesthetized mice with 3 ml of cold Hanks buffered saline solution. Cells from several mice were pooled, washed and re-suspended in DMEM supplemented with 5% FCS. Cells were plated in 96 well plastic tissue culture plates at 1×10^5 cells/well. Cells were treated with compound or vehicle for 1 hour in a 5% CO2 incubator at 37° C. Cells were then treated with LPS (10 ng/ml) and incubated for 24 hours. After 24 hours, 50 μl of supernatant from each well was carefully removed and transferred to ELISA plates. The concentration of interleukin 1 (IL-1 ) was measured by ELISA. The concentration of compound at which LPS-induced cytokine release was suppressed by 50% compared to vehicle-only-treated cells (EC50) was calculated using Prism® software. FIG. 13 and Table 8 provide the data for compound 6 tested in this assay.

O=S(=O)(O)c1ccc2cc(O)c(O)cc2c1 [Compound 6, 6,7-dihydroxynaphthalene-2-sulfonic acid]
inhibition of macrophage IL-1 release, dose-response (FIG. 13) (LPS 10 ng/ml, p<0.02): marked and statistically significant inhibition of macrophage IL-1 release | EC50 (Mus musculus, Peritoneal macrophage, [LPS] 10 ng/mL, 24 hours, read-out: EC50 (LPS-induced IL-1 release suppressed by 50%)): 27 µM

Reference: patent US20060106102A1, “Napththalene derivatives which inhibit the cytokine or biological activity of microphage migration inhibitory factor (mif)” (priority 2002, published 2006)
